According to patent publication US9738932B2, “Biomarkers for cardiovascular side-effects induced by cox-2 inhibitory compounds” (FIRALIS SAS, priority 2005, dated 2017):

Test system: mRNA expression in cardiovascular tissues
Assay: Affymetrix GeneChip mRNA expression profiling of monkey tissues (iliac vein, pulmonary vein, aorta, carotid artery, heart) after two-week oral-gavage treatment
Settings: iliac vein
[1] = group average (Vioxx without A60055)
[2] = group avg, Vioxx without A60055

SMILES: Cc1ccc(Nc2c(F)cccc2Cl)c(CC(=O)O)c1 [COX189, Lumiracoxib]
- ACE (209749_s_at) mRNA expression, Avg fold changes vs control [1]: 0.8 fold
- B2M (216231_s_at) mRNA expression, Avg fold changes vs control [1]: 1.1 fold
- BCL6 (215990_s_at) mRNA expression, Avg fold changes vs control [1]: 1.4 fold
- BTN2A2 (205298_s_at) mRNA expression, Avg fold changes vs control [1]: 1.3 fold
- CCR1 (205098_at) mRNA expression, Avg fold changes vs control [1]: 0.8 fold
- CD2 (205831_at) mRNA expression, Avg fold changes vs control [1]: 1.1 fold
- CD48 (204118_at) mRNA expression, Avg fold changes vs control [1]: 1.0 fold
- CD53 (203416_at) mRNA expression, Avg fold changes vs control [1]: 1.0 fold
- CDC2 (210559_s_at) mRNA expression, Avg fold changes vs control [1]: 1.0 fold
- CYBB (203922_s_at) mRNA expression, Avg fold changes vs control [1]: 0.9 fold
- EMP3 (203729_at) mRNA expression, Avg fold changes vs control [1]: 0.8 fold
- FCER1G (204232_at) mRNA expression, Avg fold changes vs control [1]: 1.0 fold
- FCGR2A (203561_at) mRNA expression, Avg fold changes vs control [1]: 0.8 fold
- FCGRT (218831_s_at) mRNA expression, Avg fold changes vs control [1]: 1.0 fold
- FKBP11 (219117_s_at) mRNA expression, Avg fold changes vs control [1]: 0.7 fold
- FKBP11 (219118_at) mRNA expression, Avg fold changes vs control [1]: 0.8 fold
- GP6 (220336_s_at) mRNA expression, Avg fold changes vs control [1]: 1.2 fold
- HCLS1 (202957_at) mRNA expression, Avg fold changes vs control [1]: 1.0 fold
- HEM1 (209734_at) mRNA expression, Avg fold changes vs control [1]: 1.0 fold
- HLA-A (210514_x_at) mRNA expression, Avg fold changes vs control [1]: 1.2 fold
- HLA-A (213932_x_at) mRNA expression, Avg fold changes vs control [1]: 1.2 fold
- HLA-C (211799_x_at) mRNA expression, Avg fold changes vs control [1]: 1.5 fold
- HLA-E (200904_at) mRNA expression, Avg fold changes vs control [1]: 1.0 fold
- HLA-F (221978_at) mRNA expression, Avg fold changes vs control [1]: 1.4 fold
- ICAM1 (202637_s_at) mRNA expression, Avg fold changes vs control [1]: 1.0 fold
- IL13RA1 (210904_s_at) mRNA expression, Avg fold changes vs control [1]: 1.1 fold
- PIK3CD (203879_at) mRNA expression, Avg fold changes vs control [1]: 1.1 fold
- PRKCBP1 (209048_s_at) mRNA expression, Avg fold changes vs control [1]: 1.1 fold
- PRKCBP1 (209049_s_at) mRNA expression, Avg fold changes vs control [1]: 0.9 fold
- PTPN7 (204852_s_at) mRNA expression, Avg fold changes vs control [1]: 1.0 fold
- SIGIRR (52940_at) mRNA expression, Avg fold changes vs control [1]: 0.9 fold
- STAT1 (200887_s_at) mRNA expression, Avg fold changes vs control [1]: 1.3 fold
- STAT1 (AFFX-HUMISGF3A/M97935_3_at) mRNA expression, Avg fold changes vs control [1]: 1.3 fold
- STAT3 (208992_s_at) mRNA expression, Avg fold changes vs control [1]: 1.0 fold
- TCIRG1 (204158_s_at) mRNA expression, Avg fold changes vs control [1]: 1.0 fold
- THY1 (213869_x_at) mRNA expression, Avg fold changes vs control [1]: 0.9 fold
- TMPO (209753_s_at) mRNA expression, Avg fold changes vs control [1]: 0.9 fold
- TMSB10 (217733_s_at) mRNA expression, Avg fold changes vs control [1]: 1.1 fold
- TNFRSF21 (218856_at) mRNA expression, Avg fold changes vs control [1]: 1.1 fold
- TRB@ (210915_x_at) mRNA expression, Avg fold changes vs control [1]: 1.3 fold
- TRB@ (213193_x_at) mRNA expression, Avg fold changes vs control [1]: 1.2 fold
- 209813_x_at avg fold change vs control [2]: 1.0 fold
- AIF1 (209901_x_at) avg fold change vs control [2]: 0.7 fold
- AIF1 (213095_x_at) avg fold change vs control [2]: 0.5 fold
- B2M (201891_s_at) avg fold change vs control [2]: 1.0 fold
- BCL3 (204908_s_at) avg fold change vs control [2]: 1.0 fold
- BTN3A1 (207485_x_at) avg fold change vs control [2]: 2.1 fold
- BTN3A3 (38241_at) avg fold change vs control [2]: 1.0 fold
- BTN3A3 (204820_s_at) avg fold change vs control [2]: 1.1 fold
- BTN3A3 (204821_at) avg fold change vs control [2]: 1.5 fold
- C1QA (218232_at) avg fold change vs control [2]: 1.0 fold
- C1QB (202953_at) avg fold change vs control [2]: 1.0 fold
- C1R (212067_s_at) avg fold change vs control [2]: 1.0 fold
- C1S (208747_s_at) avg fold change vs control [2]: 1.0 fold
- C2 (203052_at) avg fold change vs control [2]: 1.1 fold
- C4A (208451_s_at) avg fold change vs control [2]: 0.9 fold
- CASP1 (209970_x_at) avg fold change vs control [2]: 1.1 fold
- CASP1 (211367_s_at) avg fold change vs control [2]: 1.2 fold
- CCL2 (216598_s_at) avg fold change vs control [2]: 1.6 fold
- CCL3 (205114_s_at) avg fold change vs control [2]: 0.9 fold
- CCL5 (1405_i_at) avg fold change vs control [2]: 0.9 fold
- CCL8 (214038_at) avg fold change vs control [2]: 1.7 fold
- CCL18 (209924_at) avg fold change vs control [2]: 2.3 fold
- CCL19 (210072_at) avg fold change vs control [2]: 1.4 fold
- CCNB2 (202705_at) avg fold change vs control [2]: 1.4 fold
- CD3D (213539_at) avg fold change vs control [2]: 1.7 fold
- CD8A (205758_at) avg fold change vs control [2]: 1.2 fold
- CD14 (201743_at) avg fold change vs control [2]: 0.7 fold
- CD74 (209619_at) avg fold change vs control [2]: 1.0 fold
- CLU (208791_at) avg fold change vs control [2]: 1.0 fold
- CMAH (210571_s_at) avg fold change vs control [2]: 1.1 fold
- CTSC (201487_at) avg fold change vs control [2]: 1.1 fold
- CTSK (202450_s_at) avg fold change vs control [2]: 1.2 fold
- CTSS (202902_s_at) avg fold change vs control [2]: 1.1 fold
- CX3CR1 (205898_at) avg fold change vs control [2]: 1.2 fold
- CXCL9 (203915_at) avg fold change vs control [2]: 1.7 fold
- CXCL10 (204533_at) avg fold change vs control [2]: 1.4 fold
- CXCL11 (210163_at) avg fold change vs control [2]: 2.6 fold
- CXCL11 (211122_s_at) avg fold change vs control [2]: 2.3 fold
- CXCL12 (209687_at) avg fold change vs control [2]: 0.8 fold
- CYBA (203028_s_at) avg fold change vs control [2]: 1.2 fold
- CYBB (203923_s_at) avg fold change vs control [2]: 1.0 fold
- CYP1B1 (202436_s_at) avg fold change vs control [2]: 1.3 fold
- CYP3A5 (214234_s_at) avg fold change vs control [2]: 1.3 fold
- CYP11B1 (214630_at) avg fold change vs control [2]: 1.0 fold
- DUSP6 (208893_s_at) avg fold change vs control [2]: 0.9 fold
- ECGF1 (204858_s_at) avg fold change vs control [2]: 1.7 fold
- ECM1 (209365_s_at) avg fold change vs control [2]: 1.0 fold
- F2RL1 (206429_at) avg fold change vs control [2]: 1.8 fold
- F13A1 (203305_at) avg fold change vs control [2]: 1.1 fold
- FCGR1A (214511_x_at) avg fold change vs control [2]: 1.0 fold
- FCGR3A (204006_s_at) avg fold change vs control [2]: 1.0 fold
- G1P2 (205483_s_at) avg fold change vs control [2]: 1.5 fold
- GZMB (210164_at) avg fold change vs control [2]: 0.8 fold
- HCA127 (220040_x_at) avg fold change vs control [2]: 0.9 fold
- HCK (208018_s_at) avg fold change vs control [2]: 1.1 fold
- HFE (210864_x_at) avg fold change vs control [2]: 1.3 fold
